Reference: US9382254B2, “Compounds and pharmaceutical compositions thereof for the treatment of cystic fibrosis” (Galapagos NV, priority 2013, dated 2016)

Target: T1, CFTR ΔF508 mutant (Homo sapiens, UniProt P13569, DEL508-508)
T1 construct: expressed in transfected cells; host or cells: CFBE41o- (adenoviral transduction)
Experiment: YFP-halide influx assay for the CFTR-ΔF508 mutation (384 well, FDSS/μCell)
Format: cell-based
Details: CFBE41o- cells, CFTR-ΔF508, 1×D-PBS, fluorescence after 36 seconds
Procedure, shortened: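 Potentiator read-out as 1−F/F0, F taken 36 s after iodide addition, EC50 fitted against compound concentration. Cells: CFBE41o- expressing ΔF508 CFTR plus halide-sensitive YFP via adenovirus, rescued by 27 °C for 24 h or 24 h modulator at 37 °C.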

T1 sequence (P13569 with tags, fused parts or gaps DEL508-508): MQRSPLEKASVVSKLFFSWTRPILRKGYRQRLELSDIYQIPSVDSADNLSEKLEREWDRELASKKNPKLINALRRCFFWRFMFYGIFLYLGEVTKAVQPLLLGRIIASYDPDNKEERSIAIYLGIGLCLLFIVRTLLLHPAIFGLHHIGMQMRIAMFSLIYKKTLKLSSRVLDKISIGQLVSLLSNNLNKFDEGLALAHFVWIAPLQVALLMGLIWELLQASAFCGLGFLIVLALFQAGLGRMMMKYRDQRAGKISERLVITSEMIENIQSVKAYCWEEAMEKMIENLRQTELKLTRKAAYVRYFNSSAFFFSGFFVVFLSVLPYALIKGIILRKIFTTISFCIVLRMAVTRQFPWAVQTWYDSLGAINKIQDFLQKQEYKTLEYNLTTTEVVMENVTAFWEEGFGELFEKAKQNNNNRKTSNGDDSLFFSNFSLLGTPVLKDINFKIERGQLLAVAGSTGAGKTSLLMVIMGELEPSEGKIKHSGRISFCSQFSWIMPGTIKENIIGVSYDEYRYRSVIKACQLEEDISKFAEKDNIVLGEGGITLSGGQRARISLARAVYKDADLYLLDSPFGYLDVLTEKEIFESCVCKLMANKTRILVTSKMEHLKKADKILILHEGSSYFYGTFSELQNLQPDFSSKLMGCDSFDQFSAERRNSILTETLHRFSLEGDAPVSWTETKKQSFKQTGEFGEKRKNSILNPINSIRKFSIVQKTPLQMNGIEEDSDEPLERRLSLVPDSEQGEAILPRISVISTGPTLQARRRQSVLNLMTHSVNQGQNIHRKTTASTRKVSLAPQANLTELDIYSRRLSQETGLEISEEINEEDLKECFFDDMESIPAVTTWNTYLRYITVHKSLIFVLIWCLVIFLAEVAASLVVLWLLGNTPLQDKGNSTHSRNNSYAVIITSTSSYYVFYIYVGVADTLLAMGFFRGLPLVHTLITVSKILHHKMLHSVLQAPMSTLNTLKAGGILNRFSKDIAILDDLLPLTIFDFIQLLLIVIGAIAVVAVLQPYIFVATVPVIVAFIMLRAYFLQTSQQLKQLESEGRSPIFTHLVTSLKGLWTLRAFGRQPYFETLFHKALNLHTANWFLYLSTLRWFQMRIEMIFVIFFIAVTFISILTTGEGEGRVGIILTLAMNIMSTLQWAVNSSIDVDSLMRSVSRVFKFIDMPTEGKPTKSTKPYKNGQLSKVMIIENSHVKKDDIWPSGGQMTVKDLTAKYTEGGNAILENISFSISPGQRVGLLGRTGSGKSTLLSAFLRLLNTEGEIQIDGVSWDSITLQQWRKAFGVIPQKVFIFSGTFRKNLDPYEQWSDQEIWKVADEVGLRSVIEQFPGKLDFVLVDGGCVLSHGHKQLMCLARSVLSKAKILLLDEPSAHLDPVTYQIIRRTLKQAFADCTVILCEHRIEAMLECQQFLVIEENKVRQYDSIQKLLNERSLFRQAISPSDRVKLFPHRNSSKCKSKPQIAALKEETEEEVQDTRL

In order of rising EC50:
1. NC(=O)c1cc(S(=O)(=O)N2CCCCC2)sc1NC(=O)c1ccn[nH]1 [Compound 36, N-(3-carbamoyl-5-(piperidin-1-ylsulfonyl)thiophen-2-yl)-1H-pyrazole-3-carboxamide]  13.1 nM
2. Cc1c(S(=O)(=O)c2ccccc2)sc(NC(=O)c2ccccc2F)c1C(N)=O [Compound 87, 2-(2-fluorobenzamido)-4-methyl-5-(phenylsulfonyl) thiophene-3-carboxamide]  84.3 nM
3. CCc1cc(C(=O)Nc2sc(S(=O)(=O)c3ccccc3)cc2C(N)=O)n[nH]1 [Compound 95, N-(3-carbamoyl-5-(phenylsulfonyl)thiophen-2-yl)-5-ethyl-1H-pyrazole-3-carboxamide]  101 nM
4. CCN(C)S(=O)(=O)c1cc(C(N)=O)c(NC(=O)c2ccc(C)s2)s1 [Compound 3, N-(3-carbamoyl-5-(N-ethyl-N-methylsulfamoyl)thiophen-2-yl)-5-methylthiophene-2-carboxamide]  109 nM
5. CCN(CC)S(=O)(=O)c1cc(C(N)=O)c(NC(=O)c2ccc(C)s2)s1 [Compound 4, N-(3-carbamoyl-5-(N,N-diethylsulfamoyl)thiophen-2-yl)-5-methylthiophene-2-carboxamide]  135 nM
6. Cc1ccc(C(=O)Nc2sc(S(=O)(=O)c3ccccc3)cc2C(N)=O)s1 [Compound 16, N-(3-carbamoyl-5-(phenylsulfonyl)thiophen-2-yl)-5-methylthiophene-2-carboxamide]  187 nM

Target: T1, CFTR ΔF508 mutant
Experiment: YFP-halide influx assay for the CFTR-ΔF508 mutation, gluconate buffer
Format: cell-based
Details: CFBE41o- cells, forskolin 10.67 μM
Procedure, shortened: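 CFBE41o- cells adenovirally transduced with CFTR ΔF508 and YFP H148Q/I152L, then held 24 h at 27 °C or treated with CFTR modulator 24 h at 37 °C. I− quenching recorded for 7 s after injection; activity as 1-F/F0, EC50 from concentration plot.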

`CCN(C)S(=O)(=O)c1cc(C(N)=O)c(NC(=O)c2ccc(C)s2)s1` [Compound 3, N-(3-carbamoyl-5-(N-ethyl-N-methylsulfamoyl)thiophen-2-yl)-5-methylthiophene-2-carboxamide] and `CCN(CC)S(=O)(=O)c1cc(C(N)=O)c(NC(=O)c2ccc(C)s2)s1` [Compound 4, N-(3-carbamoyl-5-(N,N-diethylsulfamoyl)thiophen-2-yl)-5-methylthiophene-2-carboxamide] are within 1.5-fold of each other in EC50: 107 nM for the first, 94 nM for the second.

`Cc1ccc(C(=O)Nc2sc(S(=O)(=O)c3ccccc3)cc2C(N)=O)s1` [Compound 16, N-(3-carbamoyl-5-(phenylsulfonyl)thiophen-2-yl)-5-methylthiophene-2-carboxamide] and `CCc1cc(C(=O)Nc2sc(S(=O)(=O)c3ccccc3)cc2C(N)=O)n[nH]1` [Compound 95, N-(3-carbamoyl-5-(phenylsulfonyl)thiophen-2-yl)-5-ethyl-1H-pyrazole-3-carboxamide] are within 1.5-fold of each other in EC50: 99.7 nM for the first, 99.4 nM for the second.

Going from `NC(=O)c1cc(S(=O)(=O)N2CCCCC2)sc1NC(=O)c1ccn[nH]1` [Compound 36, N-(3-carbamoyl-5-(piperidin-1-ylsulfonyl)thiophen-2-yl)-1H-pyrazole-3-carboxamide] to `NC(=O)c1cc(S(=O)(=O)N2CCC2)sc1NC(=O)c1cc[nH]n1` [Compound 208, N-(5-(azetidin-1-ylsulfonyl)-3-carbamoylthiophen-2-yl)-1H-pyrazole-3-carboxamide], the EC50 rises from 92.3 nM to 573 nM (6.2-fold).

Going from `Cc1c(S(=O)(=O)c2ccccc2)sc(NC(=O)c2ccccc2F)c1C(N)=O` [Compound 87, 2-(2-fluorobenzamido)-4-methyl-5-(phenylsulfonyl) thiophene-3-carboxamide] to `Cc1ccccc1S(=O)(=O)c1cc(C(N)=O)c(NC(=O)c2ccccc2F)s1` [Compound 180, 2-(2-fluorobenzamido)-5-(o-tolylsulfonyl)thiophene-3-carboxamide], the EC50 rises from 44.1 nM to 123 nM (2.8-fold).

First: CN(C1CCOCC1)S(=O)(=O)c1cc(C(N)=O)c(NC(=O)c2ccccc2F)s1 [Compound 161, 2-(2-fluorobenzamido)-5-(N-methyl-N-(tetrahydro-2H-pyran-4-yl)sulfamoyl) thiophene-3-carboxamide]
Second: NC(=O)c1cc(S(=O)(=O)C2CCOCC2)sc1NC(=O)c1ccccc1F [Compound 165, 2-(2-fluorobenzamido)-5-(tetrahydro-2H-pyran-4-ylsulfonyl)thiophene-3-carboxamide]
The EC50 of the first is lower: 221 nM for the first, over 1000 nM for the second. The first is the more potent here.

Compared with `N#CC1CCN(S(=O)(=O)c2cc(C(N)=O)c(NC(=O)c3ccccc3F)s2)CC1` [Compound 162, 5-(4-cyanopiperidin-1-ylsulfonyl)-2-(2-fluorobenzamido) thiophene-3-carboxamide], `N#CC1CN(S(=O)(=O)c2cc(C(N)=O)c(NC(=O)c3ccccc3F)s2)C1` [Compound 176, 5-(3-cyanoazetidin-1-ylsulfonyl)-2-(2-fluorobenzamido)thiophene-3-carboxamide] is 4.4-fold higher in EC50: 331 nM for the first, 1460 nM for the second.

Compared with `CC(C)S(=O)(=O)c1cc(C(N)=O)c(NC(=O)c2ccccc2F)s1` [Compound 163, 2-(2-fluorobenzamido)-5-(isopropylsulfonyl) thiophene-3-carboxamide], `CC(C)(C)S(=O)(=O)c1cc(C(N)=O)c(NC(=O)c2ccccc2F)s1` [Compound 164, 5-(tert-butylsulfonyl)-2-(2-fluorobenzamido) thiophene-3-carboxamide] is higher in EC50: 272 nM for the first, over 1000 nM for the second. The first is the more potent here.

First: Cc1cc(C(=O)Nc2sc(S(=O)(=O)N3CCOCC3)cc2C(N)=O)n[nH]1 [Compound 166, N-(3-carbamoyl-5-(morpholinosulfonyl)thiophen-2-yl)-5-methyl-1H-pyrazole-3-carboxamide]
Second: Cc1cc(F)ccc1C(=O)Nc1sc(S(=O)(=O)N2CCOCC2)cc1C(N)=O [Compound 169, 2-(4-fluoro-2-methylbenzamido)-5-(morpholinosulfonyl) thiophene-3-carboxamide]
The EC50 of the first is 3.9-fold higher: 815 nM for the first, 210 nM for the second. The second is the more potent here.

`Cn1nc(C(C)(C)C)cc1C(=O)Nc1sc(S(=O)(=O)N2CCOCC2)cc1C(N)=O` [Compound 167, 3-tert-butyl-N-(3-carbamoyl-5-(morpholinosulfonyl)thiophen-2-yl)-1-methyl-1H-pyrazole-5-carboxamide] and `CC(C)(O)C(=O)Nc1sc(S(=O)(=O)N2CCOCC2)cc1C(N)=O` [Compound 203, 2-(2-hydroxy-2-methylpropanamido)-5-(morpholinosulfonyl) thiophene-3-carboxamide] are within 1.5-fold of each other in EC50: 3050 nM for the first, 3330 nM for the second.

First: COc1cc(F)ccc1C(=O)Nc1sc(S(=O)(=O)N2CCOCC2)cc1C(N)=O [Compound 168, 2-(4-fluoro-2-methoxybenzamido)-5-(morpholinosulfonyl) thiophene-3-carboxamide]
Second: CC(C)c1cc(C(=O)Nc2sc(S(=O)(=O)N3CCOCC3)cc2C(N)=O)c(O)c(C(C)C)c1 [Compound 201, 2-(2-hydroxy-3,5-diisopropylbenzamido)-5-(morpholinosulfonyl) thiophene-3-carboxamide]
The EC50 of the first is 2-fold lower: 1660 nM for the first, 3330 nM for the second. The first is the more potent here.

`CN(C)C1CCN(S(=O)(=O)c2cc(C(N)=O)c(NC(=O)c3ccccc3F)s2)CC1` [Compound 174, 5-(4-(dimethylamino)piperidin-1-ylsulfonyl)-2-(2-fluorobenzamido) thiophene-3-carboxamide] and `CN(C)C1CN(S(=O)(=O)c2cc(C(N)=O)c(NC(=O)c3ccccc3F)s2)C1` [Compound 187, 5-(3-(dimethylamino)azetidin-1-ylsulfonyl)-2-(2-fluorobenzamido)thiophene-3-carboxamide] are within 1.5-fold of each other in EC50: 2370 nM for the first, 1600 nM for the second.

Compared with `NC(=O)c1cc(S(=O)(=O)N2CC(F)C2)sc1NC(=O)c1ccccc1F` [Compound 177, 5-(3-fluoroazetidin-1-ylsulfonyl)-2-(2-fluorobenzamido)thiophene-3-carboxamide], `NC(=O)c1cc(S(=O)(=O)N2CC3(COC3)C2)sc1NC(=O)c1ccccc1F` [Compound 188, 5-(2-oxa-6-azaspiro[3.3]heptan-6-ylsulfonyl)-2-(2-fluorobenzamido) thiophene-3-carboxamide] is 12-fold higher in EC50: 178 nM for the first, 2100 nM for the second. The first is the more potent here.

Going from `NC(=O)c1cc(S(=O)(=O)c2ccccn2)sc1NC(=O)c1ccccc1F` [Compound 178, 2-(2-fluorobenzamido)-5-(pyridin-2-ylsulfonyl) thiophene-3-carboxamide] to `COc1ccccc1S(=O)(=O)c1cc(C(N)=O)c(NC(=O)c2ccccc2F)s1` [Compound 181, 2-(2-fluorobenzamido)-5-(2-methoxyphenylsulfonyl) thiophene-3-carboxamide], the EC50 falls from 524 nM to 144 nM (3.6-fold).

First: CN(CC(C)(C)C)S(=O)(=O)c1cc(C(N)=O)c(NC(=O)c2ccccc2F)s1 [Compound 184, 2-(2-fluorobenzamido)-5-(N-methyl-N-neopentylsulfamoyl) thiophene-3-carboxamide]
Second: COCCCN(C)S(=O)(=O)c1cc(C(N)=O)c(NC(=O)c2ccccc2F)s1 [Compound 186, 2-(2-fluorobenzamido)-5-(N-(3-methoxypropyl)-N-methylsulfamoyl)thiophene-3-carboxamide]
The EC50 of the first is 2.5-fold higher: 679 nM for the first, 270 nM for the second. The second is the more potent here.

`CN(CCC(F)(F)F)S(=O)(=O)c1cc(C(N)=O)c(NC(=O)c2ccccc2F)s1` [Compound 185, 2-(2-fluorobenzamido)-5-(N-methyl-N-(3,3,3-trifluoropropyl)sulfamoyl) thiophene-3-carboxamide] and `CS(=O)(=O)c1cc(C(N)=O)c(NC(=O)c2ccccc2O)s1` [Compound 211, 2-(2-hydroxybenzamido)-5-(methylsulfonyl)thiophene-3-carboxamide] are within 1.5-fold of each other in EC50: 335 nM for the first, 320 nM for the second.

`CN(C(c1ccccc1)C(F)(F)F)S(=O)(=O)c1cc(C(N)=O)c(NC(=O)c2cc[nH]n2)s1` (stereo not shown) [Compound 195, N-(3-carbamoyl-5-(N-methyl-N-(2,2,2-trifluoro-phenylethyl)sulfamoyl)thiophen-2-yl)-1H-pyrazole-3-carboxamide] and `COCCCN(C)S(=O)(=O)c1cc(C(N)=O)c(NC(=O)c2cc[nH]n2)s1` [Compound 204, N-(3-carbamoyl-5-(N-(3-methoxypropyl)-N-methylsulfamoyl)thiophen-2-yl)-1H-pyrazole-3-carboxamide] are within 1.5-fold of each other in EC50: 258 nM for the first, 218 nM for the second.

Going from `NC(=O)c1cc(S(=O)(=O)c2ccc(F)cc2CO)sc1NC(=O)c1ccccc1F` [Compound 196, 5-(4-fluoro-2-(hydroxymethyl)phenylsulfonyl)-2-(2-fluorobenzamido) thiophene-3-carboxamide] to `NC(=O)c1cc(S(=O)(=O)N2CC(F)C2)sc1NC(=O)c1cc[nH]n1` [Compound 205, N-(3-carbamoyl-5-(3-fluoroazetidin-1-ylsulfonyl)thiophen-2-yl)-1H-pyrazole-3-carboxamide], the EC50 falls from 2100 nM to 1150 nM (1.8-fold). The second is the more potent here.

Going from `NC(=O)c1cc(S(=O)(=O)N2CCOCC2)sc1NC(=O)C1(O)CCC1` [Compound 199, 2-(1-hydroxycyclobutanecarboxamido)-5-(morpholinosulfonyl) thiophene-3-carboxamide] to `NC(=O)c1cc(S(=O)(=O)N2CCOCC2)sc1NC(=O)C1(O)CCOCC1` [Compound 200, N-(3-carbamoyl-5-(morpholinosulfonyl)thiophen-2-yl)-4-hydroxytetrahydro-2H-pyran-4-carboxamide], the EC50 rises from 1970 nM to 3330 nM (1.7-fold).

`NC(=O)c1cc(S(=O)(=O)N2CCC(F)(F)CC2)sc1NC(=O)C1(O)CCOCC1` [Compound 202, N-(3-carbamoyl-5-(4,4-difluoropiperidin-1-ylsulfonyl)thiophen-2-yl)-4-hydroxytetrahydro-2H-pyran-4-carboxamide] gave an EC50 of 706 nM.
